How the values were obtained:
PqsA = settings: read-out: Km as PqsA substrate; cited from earlier work
MvfR = settings: binding to and activation of MvfR; cited from earlier work
P. aeruginosa PA14 = test: Compound accumulation, LC-MS/MS quantitation of lysate; format: cell-based, Pseudomonas aeruginosa; settings: 1000 μM extracellular, 30 min
[1] = tested on: HHQ and PQS quinolone production in P. aeruginosa strain PA14; test: Inhibition of HHQ and PQS quinolone production, LC-MS/MS quantitation; format: cell-based, Pseudomonas aeruginosa; settings: dose and time course over 24 h

For `Nc1ccccc1C(=O)O` [anthranilate], which Km (PqsA) is on record?
Its Km is 8 µM.

Which Km (PqsA) does the source give for `O=C(O)c1ccccc1` [benzoate] here?
The Km was 150 µM.

For `CCCCCCCc1nc2ccccc2c(O)c1O` [PQS, 3,4-dihydroxy-2-heptylquinoline], which “potency on MvfR relative to HHQ” value (MvfR) is on record?
Its value is 100 fold.

Which “penetration relative to the extracellular concentration applied” value (P. aeruginosa PA14) does the source give for `Nc1cccc(F)c1C(=O)O` [6FABA, 6-Fluoroanthranilate] here?
The value was 2–3%.

And the intracellular concentration (P. aeruginosa PA14; PA14 in LB, OD600 ≈ 0.5, calculated based on CFU)?
The intracellular concentration was 20 to 30 µM.

And the “lowest concentration that inhibited or delayed quinolone production” value [1]?
Its value is 100 µM.

— PMC5117135 (ACS Chemical Biology, 2016)
